# Earlier results as cited in patent publication US6720472B2, “HMGI proteins in cancer and obesity” (University of Medicine and Dentistry of New Jersey, priority 1996, dated 2004).
# Entries after “also recorded” stand apart in the source; their conditions may differ. Where two headings read alike, the source gives them in different places.
# Tests used:
# HMG-I proteins = settings: in vitro, A T-rich DNA
# [1] = test system: ascites tumors [Ehrlich and sarcoma 180 (S180)]
# [2] = test system: solid tumors (Ehrlich carcinoma, S180, Walker carcinoma, and Oberling-Guerin-Guerin myeloma)
# [3] = test system: B-DNA dodecamer of sequence C-G-C-G-A-A-T-T-BrC-G-C-G; settings: X-ray analysis of the complex
Structure (SMILES),competition with the BD peptide and the HMG-I proteins for DNA binding (HMG-I proteins),inhibition on ascites tumors ([1]; Ehrlich and sarcoma 180 (S180) ascites tumors),mitotic damages of tumor cells ([1]; Ehrlich ascites tumor),mitotic index of the Ehrlich ascites tumor ([1]; Ehrlich ascites tumor),growth of solid tumors [2],competition with the BD peptide and the HMG-I proteins for DNA binding (HMG-I proteins; listed as distamycin),binding site on DNA [3]
"CN1CCN(c2ccc3[nH]c(-c4ccc5[nH]c(-c6ccc(O)cc6)nc5c4)nc3c2)CC1 [Hoechst 33258, Hoechst 33258 (bisbenzimide)]",compete with the HMGI proteins for binding to AT-rich DNA; also recorded: effectively compete,,,,,,
Cn1cc(NC(=O)c2cc(NC(=O)c3cc(NC=O)cn3C)cn2C)cc1C(=O)NCCC(=N)N [distamycin A],compete with the HMGI proteins for binding to AT-rich DNA,strong inhibition,induces mitotic damages,decrease the mitotic index,delays the growth,effectively compete,
Cn1cc(NC(=O)c2cc(NC(=O)CN=C(N)N)cn2C)cc1C(=O)NCCC(=N)N [netropsin],compete with the HMGI proteins for binding to AT-rich DNA; also recorded: effectively compete,,,,,,binds within the minor groove
